Results: patent publication US8729089B2 (Gilead Sciences, Inc., priority 2006, dated 2014)

Experiments:
[1] = CC50 assay (CellTiter-Glo) in Huh-7 HCV replicon cells; assay type: cell-based, human; details: human, 3 days incubation, CellTiter-Glo readout
How it was run: (§1)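 Huh-7 cells carrying an HCV replicon (6000/well) exposed to 3-fold serial compound dilutions for 3 days at 37 °C, final DMSO 0.5% where used. EC50 read as replicon luciferase luminescence after cell lysis; CC50 from CellTiter-Glo luminescence after 10 min at room temperature.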

[2] = system: HCV replicon in human hepatoma Huh-7 cell line; assay: Anti-HCV replicon assay (EC50, luciferase); assay type: cell-based; details: Hepatitis C virus, Huh-7, 72 h
How it was run: as §1

| Compound | CC50 at 3 days [1] | EC50 [2] |
| --- | --- | --- |
| Fc1ccc(-c2ccc3nc(NCCn4cncn4)nc(NCC(F)(F)F)c3n2)cc1 [Example 254, 6-(4-Fluoro-phenyl)-N2-(2-[1,2,4]triazol-1-yl-ethyl)-N4-(2,2,2-trifluoro-ethyl)-pyrido[3,2-d]pyrimidine-2,4-diamine] | > 25 µM | < 0.1 µM |
| CC(Nc1nc(NCC(F)(F)F)c2nc(-c3ccc(F)cc3)ccc2n1)c1ccc(-n2cncn2)cc1 (stereo not drawn) [Example 255, 6-(4-Fluoro-phenyl)-N2-[1-(4-[1,2,4]triazol-1-yl-phenyl)-ethyl]-N4-(2,2,2-trifluoro-ethyl)-pyrido[3,2-d]pyrimidine-2,4-diamine] | 5 to 25 µM | < 0.1 µM |
| CCOP(=O)(CCNc1nc(NCC(F)(F)F)c2nc(-c3ccc(F)cc3)ccc2n1)OCC [Example 256, {2-[6-(4-Fluoro-phenyl)-4-(2,2,2-trifluoro-ethylamino)-pyrido[3,2-d]pyrimidin-2-ylamino]-ethyl}-phosphonic acid diethyl ester] | 5 to 25 µM | < 0.1 µM |
| Fc1ccc(-c2ccc3nc(NCCN4CCOCC4)nc(NCC(F)(F)F)c3n2)cc1 [Example 258, 6-(4-Fluoro-phenyl)-N2-(2-morpholin-4-yl-ethyl)-N4-(2,2,2-trifluoro-ethyl)-pyrido[3,2-d]pyrimidine-2,4-diamine] | < 5 µM | < 0.1 µM |
| NS(=O)(=O)CCNc1nc(NCC(F)(F)F)c2nc(-c3ccc(F)cc3)ccc2n1 [Example 259, 2-[6-(4-Fluoro-phenyl)-4-(2,2,2-trifluoro-ethylamino)-pyrido[3,2-d]pyrimidin-2-ylamino]-ethanesulfonic acid amide] | 5 to 25 µM | < 0.1 µM |
| NC(=O)CCNc1nc(NCC(F)(F)F)c2nc(-c3ccc(F)cc3)ccc2n1 [Example 260, 3-[6-(4-Fluoro-phenyl)-4-(2,2,2-trifluoro-ethylamino)-pyrido[3,2-d]pyrimidin-2-ylamino]-propionamide] | 5 to 25 µM | < 0.1 µM |
| NC(=O)c1ccc(CNc2nc(NCC(F)(F)F)c3nc(-c4ccc(F)cc4)ccc3n2)cc1 [Example 261, 4-{[6-(4-Fluoro-phenyl)-4-(2,2,2-trifluoro-ethylamino)-pyrido[3,2-d]pyrimidin-2-ylamino]-methyl}-benzamide] | < 5 µM | < 0.1 µM |
| CCOc1nc(NCc2ccc(C(=O)N(C)C)cc2)nc2ccc(-c3ccc(F)cc3)nc12 [Example 262, 4-{[4-Ethoxy-6-(4-fluoro-phenyl)-pyrido[3,2-d]pyrimidin-2-ylamino]-methyl}-N,N-dimethyl-benzamide] | > 25 µM | < 0.1 µM |
| CCOc1nc(NCc2cccnc2)nc2ccc(-c3ccc(F)cc3)nc12 [Example 263, [4-Ethoxy-6-(4-fluoro-phenyl)-pyrido[3,2-d]pyrimidin-2-yl]-pyridin-3-ylmethyl-amine] | > 25 µM | < 0.1 µM |
| CCOc1nc(NCCOC)nc2ccc(-c3ccc(F)cc3)nc12 [Example 264, [4-Ethoxy-6-(4-fluoro-phenyl)-pyrido[3,2-d]pyrimidin-2-yl]-(2-methoxy-ethyl)-amine] | > 25 µM | < 0.1 µM |
| CCOc1nc(NCCS(N)(=O)=O)nc2ccc(-c3ccc(F)cc3)nc12 [Example 265, 2-[4-Ethoxy-6-(4-fluoro-phenyl)-pyrido[3,2-d]pyrimidin-2-ylamino]-ethanesulfonic acid amide] | 5 to 25 µM | < 0.1 µM |
| CCOc1nc(NCc2ncco2)nc2ccc(-c3ccc(F)cc3)nc12 [Example 266, [4-Ethoxy-6-(4-fluoro-phenyl)-pyrido[3,2-d]pyrimidin-2-yl]-oxazol-2-ylmethyl-amine] | > 25 µM | < 0.1 µM |
| CCOc1nc(NCc2ccc(-n3cncn3)cc2)nc2ccc(-c3ccc(F)cc3)nc12 [Example 267, [4-Ethoxy-6-(4-fluoro-phenyl)-pyrido[3,2-d]pyrimidin-2-yl]-(4-[1,2,4]triazol-1-yl-benzyl)-amine] | > 25 µM | < 0.1 µM |
| CCOc1nc(NCc2ccc(C(N)=O)cc2)nc2ccc(-c3ccc(F)cc3)nc12 [Example 268, 4-{[4-Ethoxy-6-(4-fluoro-phenyl)-pyrido[3,2-d]pyrimidin-2-ylamino]-methyl}-benzamide] | 5 to 25 µM | < 0.1 µM |
| CCOc1nc(NCc2ccc(CS(=O)(=O)NC)cc2)nc2ccc(-c3ccc(F)cc3)nc12 [Example 269, C-(4-{[4-Ethoxy-6-(4-fluoro-phenyl)-pyrido[3,2-d]pyrimidin-2-ylamino]-methyl}-phenyl)-N-methyl-methanesulfonamide] | 5 to 25 µM | < 0.1 µM |
| CCOc1nc(NCc2ccc(CS(N)(=O)=O)cc2)nc2ccc(-c3ccc(F)cc3)nc12 [Example 270] | 5 to 25 µM | < 0.1 µM |
| CCOc1nc(NCc2ccc(NS(C)(=O)=O)cc2)nc2ccc(-c3ccc(F)cc3)nc12 [Example 271, N-(4-{[4-Ethoxy-6-(4-fluoro-phenyl)-pyrido[3,2-d]pyrimidin-2-ylamino]-methyl}-phenyl)-methanesulfonamide] | 5 to 25 µM | < 0.1 µM |
| NC(=O)c1ccc(-c2ccc3nc(NCc4ccc(F)cc4)nc(NCC(F)(F)F)c3n2)cc1 [Example 272, 4-[2-(4-Fluoro-benzylamino)-4-(2,2,2-trifluoro-ethylamino)-pyrido[3,2-d]pyrimidin-6-yl]-benzamide] | < 5 µM | < 0.1 µM |
| CN(CCS(C)(=O)=O)c1nc(NCc2ccc(F)cc2)nc2ccc(-c3ccc(C(N)=O)cc3)nc12 [Example 273, 4-{2-(4-Fluoro-benzylamino)-4-[(2-methanesulfonyl-ethyl)-methyl-amino]-pyrido[3,2-d]pyrimidin-6-yl}-benzamide] | 5 to 25 µM | < 0.1 µM |
| CS(=O)(=O)CCNc1nc(NCc2ccc(F)cc2)nc2ccc(-c3ccc(C(N)=O)cc3)nc12 [Example 274, 4-[2-(4-Fluoro-benzylamino)-4-(2-methanesulfonyl-ethylamino)-pyrido[3,2-d]pyrimidin-6-yl]-benzamide] | < 5 µM | < 0.1 µM |
| O=C1C(O)CCN1c1ccc(-c2ccc3nc(NCc4ccc(F)cc4)nc(NCC(F)(F)F)c3n2)cc1 (stereo not drawn) [Example 275, 1-{4-[2-(4-Fluoro-benzylamino)-4-(2,2,2-trifluoro-ethylamino)-pyrido[3,2-d]pyrimidin-6-yl]-phenyl}-3-hydroxy-pyrrolidin-2-one] | < 5 µM | < 0.1 µM |
| CS(=O)(=O)N(CCO)c1cccc(-c2ccc3nc(NCc4ccc(F)cc4)nc(NCC(F)(F)F)c3n2)c1 [Example 276, N-{3-[2-(4-Fluoro-benzylamino)-4-(2,2,2-trifluoro-ethylamino)-pyrido[3,2-d]pyrimidin-6-yl]-phenyl}-N-(2-hydroxy-ethyl)-methanesulfonamide] | 5 to 25 µM | < 0.1 µM |
| CC(C)(N)C(=O)Nc1ccc(-c2ccc3nc(NCc4ccc(F)cc4)nc(NCC(F)(F)F)c3n2)cc1 [Example 277, 2-Amino-N-{4-[2-(4-fluoro-benzylamino)-4-(2,2,2-trifluoro-ethylamino)-pyrido[3,2-d]pyrimidin-6-yl]-phenyl}-2-methyl-propionamide] | < 5 µM | < 0.1 µM |
| O=C(Nc1ccc(-c2ccc3nc(NCc4ccc(F)cc4)nc(NCC(F)(F)F)c3n2)cc1)C1(O)CC1 [Example 278, 1-Hydroxy-cyclopropanecarboxylic acid {4-[2-(4-fluoro-benzylamino)-4-(2,2,2-trifluoro-ethylamino)-pyrido[3,2-d]pyrimidin-6-yl]-phenyl}-amide] | 5 to 25 µM | < 0.1 µM |
| CN(CCS(C)(=O)=O)c1nc(NCc2ccc(F)cc2)nc2ccc(-c3cccc(N(CCO)S(C)(=O)=O)c3)nc12 [Example 279, N-(3-{2-(4-Fluoro-benzylamino)-4-[(2-methanesulfonyl-ethyl)-methyl-amino]-pyrido[3,2-d]pyrimidin-6-yl}-phenyl)-N-(2-hydroxy-ethyl)-methanesulfonamide] | 5 to 25 µM | < 0.1 µM |
| CN(CCS(C)(=O)=O)c1nc(NCc2ccc(F)cc2)nc2ccc(-c3ccc(NC(=O)C(C)(C)N)cc3)nc12 [Example 280, 2-Amino-N-(4-{2-(4-fluoro-benzylamino)-4-[(2-methanesulfonyl-ethyl)-methyl-amino]-pyrido[3,2-d]pyrimidin-6-yl}-phenyl)-2-methyl-propionamide] | 5 to 25 µM | < 0.1 µM |
| CN(CCS(C)(=O)=O)c1nc(NCc2ccc(F)cc2)nc2ccc(-c3ccc(NC(=O)C4(O)CC4)cc3)nc12 [Example 281, 1-Hydroxy-cyclopropanecarboxylic acid (4-{2-(4-fluoro-benzylamino)-4-[(2-methanesulfonyl-ethyl)-methyl-amino]-pyrido[3,2-d]pyrimidin-6-yl}-phenyl)-amide] | 5 to 25 µM | < 0.1 µM |
| CS(=O)(=O)CCNc1nc(NCc2ccc(F)cc2)nc2ccc(-c3cnc(N)s3)nc12 [Example 282, 6-(2-Amino-thiazol-5-yl)-N2-(4-fluoro-benzyl)-N4-(2-methanesulfonyl-ethyl)-pyrido[3,2-d]pyrimidine-2,4-diamine] | > 25 µM | < 0.1 µM |
| N#CC1(NC(=O)c2ccc(-c3ccc4nc(NCc5ccc(F)cc5)nc(O[C@H]5CCOC5)c4n3)cc2)CC1 [Example 283, N-(1-Cyano-cyclopropyl)-4-[2-(4-fluoro-benzylamino)-4-(tetrahydro-furan-3-yloxy)-pyrido[3,2-d]pyrimidin-6-yl]-benzamide] | < 5 µM | < 0.1 µM |
| CC(C)Nc1cnn(-c2ccc3nc(NCc4ccc(S(N)(=O)=O)cc4)nc(NCC(F)(F)F)c3n2)c1 [Example 284, 4-{[6-(4-Isopropylamino-pyrazol-1-yl)-4-(2,2,2-trifluoro-ethylamino)-pyrido[3,2-d]pyrimidin-2-ylamino]-methyl}-benzenesulfonamide] | > 25 µM | < 0.1 µM |
